# Test results published in the NIST ThermoML archive (doi:10.1021/je050013y).
# Numbers after ± are expanded uncertainties.
# Assays:
# [1] = 293.15 K; 101.33 kPa; Liquid
# [2] = refractive index (Na D-line) (dimensionless); conditions: 293.15 K; 101.33 kPa; Liquid; Standard Abbe refractometry
mass density [1] [kg/m3],refractive index [2],Compound
840.2 ± 4.5,1.378 ± 0.0007,"COC(C)(C)OC [3,3-dimethyl-2,4-dioxapentane]"
786.5 ± 0.3,1.3289 ± 0.0007,CO [methanol]

Compound,mass density [1] [kg/m3],refractive index [2]
CC(C)=O [acetone],784.6 ± 3,1.3589 ± 0.0007
